The values that follow come from ChEMBL document CHEMBL3046322, “Insect growth regulatory effects by diterpenes from Calceolaria talcana Grau & Ehrhart (Calceolariaceae: Scrophulariaceae) against Spodoptera frugiperda and Drosophila melanogaster” (2013).

The term mortality denotes the percentage killed. The inhibition is the change of the read-out against control, counted positive when it falls. As a reminder, the LC50 is the concentration lethal to half of the exposed cells or organisms.

Experiment [1] concerns Spodoptera frugiperda. As to the kind of experiment: Growth inhibitory activity against first-instar larval stage of Spodoptera frugiperda (fall armyworm) fed with compound incorporated diet assessed as weight gained at 5 ug/ml after 7 days (reference value: 100%). The experiment is classed as functional. The arrangement: scale not given: the % may be the effect or the level left.

Experiment [2] concerns Spodoptera frugiperda. Nature of the experiment: Insecticidal activity against first-instar larval stage of Spodoptera frugiperda (fall armyworm) fed with compound incorporated diet assessed as mortality at 20 ug/ml after 21 days (reference value: 5.6%). It counts as functional. Conditions: 504 h.
For experiment [3], the system named is Spodoptera frugiperda. Nature of the experiment: Acute toxicity against last larval stage of Spodoptera frugiperda (fall armyworm) assessed as survival at 5 ug/ml applied topically onto abdomen measured after 24 hr (reference value: 98.8 +/-3.5%). It counts as functional.
The subject of experiment [4] is Spodoptera frugiperda. As to the kind of experiment: Growth inhibitory activity against Spodoptera frugiperda (fall armyworm) larvae fed with compound containing diet assessed as growth index at 5 ug/ml (reference value: 0.95 +/-0.02 no_unit). It counts as functional.
Experiment [5] has as its system Drosophila melanogaster. As to the kind of experiment: Insecticidal activity against Drosophila melanogaster larvae fed with compound incorporated diet assessed as mortality at 100 ug/ml after 72 hr by not choice test (reference value: 0%). The experiment is classed as functional.
Experiment [6] has as its system Spodoptera frugiperda. As to the kind of experiment: Growth inhibitory activity against first-instar larval stage of Spodoptera frugiperda (fall armyworm) fed with compound incorporated diet assessed as weight gained at 35 ug/ml after 21 days (reference value: 100%). The experiment is classed as functional.
In experiment [7] the test system is Spodoptera frugiperda. Nature of the experiment: Growth inhibitory activity against Spodoptera frugiperda (fall armyworm) larvae fed with compound containing diet assessed as reduction in pupae weight at 25 ug/ml. The experiment is classed as functional, organism-based.
The subject of experiment [8] is Spodoptera frugiperda. Nature of the experiment: Growth inhibitory activity against Spodoptera frugiperda (fall armyworm) larvae fed with compound containing diet assessed as reduction in adult emergence at 35 ug/ml. The experiment is classed as functional.
Experiment [9] deals with Spodoptera frugiperda. Nature of the experiment: Growth inhibitory activity against first-instar larval stage of Spodoptera frugiperda (fall armyworm) fed with compound incorporated diet assessed as weight gained at 10 ug/ml after 7 days (reference value: 100%). It counts as functional. Set-up: scale not given: the % may be the effect or the level left.
Experiment [10] concerns Spodoptera frugiperda. As to the kind of experiment: Insecticidal activity against first-instar larval stage of Spodoptera frugiperda (fall armyworm) fed with compound incorporated diet assessed as mortality at 50 ug/ml after 21 days (reference value: 5.6%). It counts as functional. Conditions: 504 h.
Experiment [11] deals with Spodoptera frugiperda. As to the kind of experiment: Growth inhibitory activity against first-instar larval stage of Spodoptera frugiperda (fall armyworm) fed with compound incorporated diet assessed as weight gained at 50 ug/ml after 7 days (reference value: 100%). The experiment is classed as functional. The arrangement: scale not given: the % may be the effect or the level left.

For experiment [12], the system named is Drosophila melanogaster. As to the kind of experiment: Insecticidal activity against Drosophila melanogaster larvae fed with compound incorporated diet assessed as mortality at 20 ug/ml after 72 hr by not choice test (reference value: 0%). The experiment is classed as functional.
Experiment [13] has as its system Spodoptera frugiperda. As to the kind of experiment: Growth inhibitory activity against first-instar larval stage of Spodoptera frugiperda (fall armyworm) fed with compound incorporated diet assessed as length gained at 35 ug/ml after 21 days (reference value: 100%). The experiment is classed as functional.
In experiment [14] the test system is Drosophila melanogaster. As to the kind of experiment: Insecticidal activity against Drosophila melanogaster larvae fed with compound incorporated diet assessed as mortality after 72 hr by not choice test. The experiment is classed as functional.
The subject of experiment [15] is Spodoptera frugiperda. As to the kind of experiment: Growth inhibitory activity against Spodoptera frugiperda (fall armyworm) larvae fed with compound containing diet assessed as delay in time to pupation at 20 ug/ml. It counts as functional.
In experiment [16] the test system is Spodoptera frugiperda. As to the kind of experiment: Acute toxicity against last larval stage of Spodoptera frugiperda (fall armyworm) assessed as survival at 20 ug/ml applied topically onto abdomen measured after 24 hr (reference value: 98.8 +/-3.5%). It counts as functional.
Experiment [17] has as its system Spodoptera frugiperda. As to the kind of experiment: Insecticidal activity against first-instar larval stage of Spodoptera frugiperda (fall armyworm) fed with compound incorporated diet assessed as mortality at 35 ug/ml after 21 days (reference value: 5.6%). It counts as functional. Conditions: 504 h.
Experiment [18] relates to Spodoptera frugiperda. As to the kind of experiment: Insecticidal activity against first-instar larval stage of Spodoptera frugiperda (fall armyworm) fed with compound incorporated diet assessed as mortality at 20 ug/ml after 7 days (reference value: 5.6%). The following applies: 168 h. It counts as functional.
Experiment [19] has as its system Spodoptera frugiperda. Nature of the experiment: Acute toxicity against last larval stage of Spodoptera frugiperda (fall armyworm) assessed as survival at 35 ug/ml applied topically onto abdomen measured after 24 hr (reference value: 98.8 +/-3.5%). The experiment is classed as functional.
Experiment [20] concerns Spodoptera frugiperda. Nature of the experiment: Acute toxicity against last larval stage of Spodoptera frugiperda (fall armyworm) assessed as survival at 70 ug/ml applied topically onto abdomen measured after 24 hr (reference value: 98.8 +/-3.5%). It counts as functional.
Experiment [21] deals with Spodoptera frugiperda. As to the kind of experiment: Growth inhibitory activity against Spodoptera frugiperda (fall armyworm) larvae fed with compound containing diet assessed as growth index at 50 ug/ml (reference value: 0.95 +/-0.02 no_unit). It counts as functional.
Experiment [22] concerns Spodoptera frugiperda. Nature of the experiment: Acute toxicity against last larval stage of Spodoptera frugiperda (fall armyworm) assessed as survival at 50 ug/ml applied topically onto abdomen measured after 24 hr (reference value: 98.8 +/-3.5%). The experiment is classed as functional.
The subject of experiment [23] is Spodoptera frugiperda. Nature of the experiment: Growth inhibitory activity against Spodoptera frugiperda (fall armyworm) larvae fed with compound containing diet assessed as reduction in survival pupation at >35 ug/ml. It counts as functional.
Experiment [24] deals with Spodoptera frugiperda. As to the kind of experiment: Growth inhibitory activity against Spodoptera frugiperda (fall armyworm) larvae fed with compound containing diet assessed as relative growth index at 50 ug/ml (reference value: 1.0 no_unit). The experiment is classed as functional.
Experiment [25] has as its system Spodoptera frugiperda. As to the kind of experiment: Acute toxicity against last larval stage of Spodoptera frugiperda (fall armyworm) assessed as mortality applied topically onto abdomen measured after 7 days. The following applies: topical, 168 h. The experiment is classed as functional.
Experiment [26] has as its system Drosophila melanogaster. Nature of the experiment: Insecticidal activity against Drosophila melanogaster larvae fed with compound incorporated diet assessed as mortality at 35 ug/ml after 72 hr by not choice test (reference value: 0%). The experiment is classed as functional.
Experiment [27] concerns Spodoptera frugiperda. Nature of the experiment: Growth inhibitory activity against Spodoptera frugiperda (fall armyworm) larvae fed with compound containing diet assessed as delay in time to pupation at 5 ug/ml. The experiment is classed as functional.
The subject of experiment [28] is Drosophila melanogaster. As to the kind of experiment: Insecticidal activity against Drosophila melanogaster larvae fed with compound incorporated diet assessed as mortality at 5 ug/ml after 72 hr by not choice test (reference value: 0%). It counts as functional.

Values after ≈ are worked out from the molar mass of the structure shown. Active and inactive are the calls of the source. The calls are words filed in the database; no cut-off is given here.

In the case of `C[C@H]1[C@H](C)CC[C@]2(C(=O)O)CC[C@]3(C)C(=CC[C@@H]4[C@@]5(C)CC[C@H](O)C(C)(C)[C@@H]5CC[C@]43C)[C@H]12` [URSOLIC ACID], the Activity was 81.5% in experiment [1]; 73% in experiment [3]; 53.3% in experiment [9]; 32.5% in experiment [11]; 20.1% in [16]; 7.9% in experiment [19]. Further, the figures for the mortality at 20 µg/mL in experiment [2], in experiment [12] and in experiment [18] were 91.7%, 15.1% and 29.2%, respectively. The Growth_index in experiment [4] was determined as 0.93. Also, in [5], the mortality at 100 µg/mL was 100%. For the same compound, in experiment [6], the “Weight gain relative to control” value came to 0%. Moreover, the inhibition entry in experiment [7] is “Active”. For the same compound, the inhibition at 35 µg/mL in experiment [8] stood at 0%. Moreover, in [10], the mortality at 50 µg/mL was 100%. The “Length gained relative to control” value in experiment [13] worked out at 0%. The LC50 in [14] is 41.3 µg/mL (≈ 90.4 µM). Further, in [15], the Time was >24 days. For the same compound, in experiment [17], the mortality at 35 µg/mL stood at 100%.
In the case of `CC(C)c1ccc2c(c1)CC[C@H]1[C@](C)(CO)CCC[C@]21C` [POMIFERIN A], the Activity was 89.5% in experiment [1]; 0% in experiment [20]; 75% in experiment [3]; 3.9% in [22]; 81.3% in [9]; 41.3% in experiment [11]. Also, the Activity worked out at 51% in [16] and 6.9% in [19]. The mortality at 20 µg/mL in experiment [2] came to 15%; in experiment [12], 67%; in experiment [18], 46.8%. The Growth_index is 0.97 in experiment [4], 0.54 in experiment [21] and 0.71 in experiment [24]. In addition, the mortality at 100 µg/mL in [5] turned out to be 82.9%. In addition, in experiment [6], the “Weight gain relative to control” value was determined as 38.2%. Also, the inhibition entry in experiment [7] is “Active”. For the same compound, the “inhibition (INH)” value in [23] is on record as 0%. For the same compound, the inhibition at 35 µg/mL in [8] worked out at 0%. The mortality at 50 µg/mL in experiment [10] amounted to 44%. The LD50 in [25] amounted to 17.5 µg/mL. In experiment [13], the “Length gained relative to control” value was found to be 37.4%. For the same compound, the LC50 in experiment [14] is 16.1 µg/mL (≈ 56.2 µM). The mortality at 35 µg/mL in [17] turned out to be 25%.
Take `C=CC(C)(C)C1=C(O)C(=O)c2ccccc2C1=O`: the Activity stood at 47.4% in experiment [1], 35.5% in experiment [3], 29.3% in experiment [9] and 0% in experiment [11]. Moreover, the mortality at 20 µg/mL is 98% in experiment [2], 65% in experiment [12] and 91.7% in experiment [18]. In addition, the Growth_index in experiment [4] is 0.71. Besides, the “Weight gain relative to control” value in experiment [6] was 7.8%. In addition, the inhibition entry in experiment [7] was “Active”. In [8], the inhibition at 35 µg/mL is 0%. The mortality at 50 µg/mL in [10] came out at 100%. Moreover, in experiment [25], the LD50 worked out at 3.64 µg/mL. Besides, the “Length gained relative to control” value in experiment [13] was 4.1%. Further, the LC50 in experiment [14] stood at 15.8 µg/mL (≈ 65.2 µM). Moreover, the mortality at 35 µg/mL in [17] was determined as 100%.
As for `C=C[C@]1(C)CC[C@H]2C(=CC[C@@H]3[C@](C)(CO)CC[C@@H]4C[C@@]432)C1`, the Activity was 25.1% in experiment [1], 27% in experiment [3], 17.1% in experiment [9] and 0% in experiment [11]. The mortality at 20 µg/mL in experiment [2] was determined as 100%; in experiment [12] it was 98%; in experiment [18] it was 55.8%. The Growth_index in [4] was found to be 0.41. The “Weight gain relative to control” value in experiment [6] is reported as 0%. The inhibition result in experiment [7] is “Active”. Moreover, the mortality at 35 µg/mL in [26] and in [17] was 100% throughout. Further, in experiment [8], the inhibition at 35 µg/mL was found to be 0%. For the same compound, the Time in [27] is >24 days. In experiment [10], the mortality at 50 µg/mL is 100%. Also, in experiment [25], the LD50 came to 3.02 µg/mL. The “Length gained relative to control” value in [13] was determined as 0%. In experiment [14], the LC50 came out at 9.2 µg/mL (≈ 32.1 µM). In addition, the mortality at 5 µg/mL in experiment [28] was 0%.
